Source: ChEMBL document CHEMBL1147454, “6-Arylamino-7-chloro-quinazoline-5,8-diones as novel cytotoxic and DNA topoisomerase inhibitory agents” (Bioorg Med Chem Lett, 2004)

How the values were obtained:
A549 = assay: In vitro cytotoxicity against human A549 (lung cancer) cell line.; format: functional, cell-based
Col2 = assay: In vitro cytotoxicity against human Col2 (colon cancer) cell line.; format: functional, cell-based
DNA topoisomerase II [1] = target: T1, DNA topoisomerase II (Homo sapiens, UniProt P11388+Q02880); assay: In vitro inhibition of human DNA topoisomerase II activity.; format: protein assay; settings: concentration not given here
[2] = target: T2, DNA topoisomerase 1 (Homo sapiens) (UniProt P11387); assay: In vitro inhibition of human DNA topoisomerase I activity.; set-up: concentration or dose not given beside the values; settings: concentration not given here
T2 sequence (whole entry): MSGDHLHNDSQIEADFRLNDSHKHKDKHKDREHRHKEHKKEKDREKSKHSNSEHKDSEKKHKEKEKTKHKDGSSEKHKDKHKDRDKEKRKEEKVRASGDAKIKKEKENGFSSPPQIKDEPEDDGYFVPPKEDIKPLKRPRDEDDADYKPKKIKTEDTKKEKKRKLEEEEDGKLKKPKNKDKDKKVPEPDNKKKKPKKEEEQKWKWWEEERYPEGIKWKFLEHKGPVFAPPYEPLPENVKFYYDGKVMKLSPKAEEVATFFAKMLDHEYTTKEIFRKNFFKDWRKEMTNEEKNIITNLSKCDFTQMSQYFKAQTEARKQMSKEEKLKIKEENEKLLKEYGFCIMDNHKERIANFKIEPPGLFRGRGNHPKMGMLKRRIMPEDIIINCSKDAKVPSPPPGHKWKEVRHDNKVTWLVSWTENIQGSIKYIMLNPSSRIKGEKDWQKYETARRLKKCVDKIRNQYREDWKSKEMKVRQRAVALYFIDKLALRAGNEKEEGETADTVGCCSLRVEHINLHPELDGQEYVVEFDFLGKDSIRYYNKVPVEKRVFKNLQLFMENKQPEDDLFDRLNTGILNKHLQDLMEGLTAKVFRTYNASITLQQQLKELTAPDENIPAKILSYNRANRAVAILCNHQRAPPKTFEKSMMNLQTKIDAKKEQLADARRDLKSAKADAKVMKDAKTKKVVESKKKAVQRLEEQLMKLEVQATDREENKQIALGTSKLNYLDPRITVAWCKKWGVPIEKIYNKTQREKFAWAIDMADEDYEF

SNU-638 = assay: In vitro cytotoxicity against human SNU-638 (stomach cancer) cell line.; format: functional, cell-based
DNA topoisomerase II [3] = target: T1, DNA topoisomerase II; assay: Inhibitory activity against DNA topoisomerase II; format: protein assay
DNA topoisomerase II [4] = target: T1, DNA topoisomerase II; assay: Inhibitory activity against topo II-mediated decatenation of DNA; format: protein assay

inhibition (DNA topoisomerase II [1]) [%]	inhibition [2] [%]	IC50 (DNA topoisomerase II [3]) [µM]	IC50 (DNA topoisomerase II [4]) [µM]	Structure (SMILES)	IC50 (A549) [µM]	IC50 (Col2) [µM]	IC50 (SNU-638) [µM]
1	12			Cc1ccc(NC2=C(Cl)C(=O)c3ncncc3C2=O)cc1	5.81	0.87	0.73
20	35			COc1ccc(/N=C2/C(=O)c3cncnc3C(O)=C2Cl)c(OC)c1	2.02	1.07	0.61
20	100			Cc1ccc(NC2=C(Cl)C(=O)c3ncncc3C2=O)cc1C	4.49	3.73	0.99
100	100	40.5		Cc1ccc(/N=C2/C(=O)c3cncnc3C(O)=C2Cl)c(Br)c1	4.07	3.04	0.89
2	12			O=C1C(Nc2cccc(Cl)c2)=C(Cl)C(=O)c2ncncc21	4.22	3.55	0.81
2	27			O=C1C(Nc2ccc3c(c2)OCO3)=C(Cl)C(=O)c2ncncc21	1.67	0.88	0.55
6	29			Cc1ccccc1/N=C1/C(=O)c2cncnc2C(O)=C1Cl	3.6	3.77	0.9
94	58		15.1	O=C1C(Nc2ccc(Br)cc2)=C(Cl)C(=O)c2ncncc21	4.31	3.02	0.69
1	9			CCOc1ccccc1/N=C1/C(=O)c2cncnc2C(O)=C1Cl	3.28	0.73	0.69
82	20			CCc1ccccc1/N=C1/C(=O)c2cncnc2C(O)=C1Cl	4.65	4.37	0.7
				COc1cccc2c1C(=O)c1c(O)c3c(c(O)c1C2=O)C[C@@](O)(C(=O)CO)C[C@@H]3O[C@H]1C[C@H](N)[C@H](O)[C@H](C)O1 [DOXORUBICIN]	0.3	0.52	0.69
48				COc1cc([C@@H]2c3cc4c(cc3[C@@H](O[C@@H]3O[C@@H]5CO[C@@H](C)O[C@H]5[C@H](O)[C@H]3O)[C@H]3COC(=O)[C@H]23)OCO4)cc(OC)c1O			
41	27			O=C1C(Nc2ccccc2)=C(Cl)C(=O)c2ncncc21	3.54	1.19	0.77
2	96			Cc1cccc(NC2=C(Cl)C(=O)c3ncncc3C2=O)c1	5.17	5.67	0.97
2	9			O=C1C(Nc2cccc(Br)c2)=C(Cl)C(=O)c2ncncc21	3.68	5.07	1.18
4	88			CCc1ccc(NC2=C(Cl)C(=O)c3ncncc3C2=O)cc1	3.44	0.7	0.64
				Cc1c2ccncc2c(C)c2c1[nH]c1ccccc12 [ELLIPTECINE]	1.22	1.22	2
99	89		17.3	O=C1C(Nc2ccccc2Br)=C(Cl)C(=O)c2ncncc21	4.47	3.4	0.99
